Reference: patent US20240317743A1, “Solid Forms of BCL-2 Inhibitors, Method of Preparation, and Use Thereof” (BeiGene, Ltd., priority 2021, published 2024)
Values after ≈ are worked out from the molar mass of the structure shown. Blank lines part the entries; values can stand above or below the compound they belong to.

How the values were obtained:
Assay type in all cases: physicochemical
[1] = DVS (Method A) water uptake / hygroscopicity; settings: 25° C./80% RH
Method: DVS of the obtained forms in the present disclosure was measured via an SMS (Surface Measurement Systems) DVS Intrinsic, without special instructions (Method A). The relative humidity at 25° C. was calibrated against deliquescence point of LiCl, Mg(NO3)2 and KCl. Parameters for the DVS test are listed as follows. [table]

[2] = Solid form solubility, concentration by HPLC at 24 hours
Method: The solubility of Compound 1 in different physical forms was tested in water, 0.1 N HCl, pH 4.5 acetate buffer and pH 6.8 phosphate buffer. At 24 hours of time point, the concentration of Compound 1 was detected by HPLC.

[3] = Long term and accelerated physical and chemical stability test, impurities by HPLC
Method: Long term and accelerated stability studies were conducted in different physical forms of Compound 1, by storing the samples at 25±2° C./60±5% RH and 40±2° C./75±5% RH conditions for up to 6 months. And, the content of the total impurities of each sample was tested by HPLC.

[4] = Physical stability: storage under humidity/temperature, form checked by XRPD
Method: To evaluate the physicochemical stability, store 1˜3 mg of Forms B, S, M, R, F, H and N samples were stored under 25° C./60% RH or 40° C./75% RH conditions for one week (unsealed) or 80° C. condition for 24 hrs (sealed).

[5] = Solid form stability of Form B: slurry or shaking in acetone/H2O system at 50° C., XRPD
Method: Evaluation of solid form stability of Form B was performed in acetone/H2O system at 50° C. About 2 mg of Form B sample was used to slurry or shake in the acetone/H2O (1:9, v/v) and H2O solution (saturated by amorphous sample).

[6] = Storage at RT, form checked by XRPD overlay; settings: RT, ~3 days
Method: Form K was speculated as a methyl acetate solvate.
Thus, Form L was speculated as a metastable anhydrate/hydrate which could be de-solvated from the wet cake from the solvent system.
(peak) before decomposition (FIG. 16B). According to the integration of ^1H NMR result (FIG. 16C), the theoretical weight of chlorobenzene was calculated as 9.8%, which matched with the TGA weight loss. […] After heating the sample to 140° C., more diffraction peaks disappeared. Combined with the TGA, ^1H NMR data and heating experiment, Form P was speculated as a chlorobenzene solvate.

- water uptake ([1]; listed as amorphous form): 1.8%
- solubility ([2]; 0.1 N HCl): 35.30 µg/mL (≈ 39.7 µM)
- solubility ([2]; pH 4.5 acetate buffer): no Compound 1 was detected
- solubility ([2]; pH 6.8 phosphate buffer): no Compound 1 was detected
- solubility ([2]; water): no Compound 1 was detected
- change of chemical purity ([3]; 25±2° C./60±5% RH and 40±2° C./75±5% RH, up to 6 months): reduced significantly
- total content of impurities ([3]; after 6 months at 40±2° C./75±5% RH): 4.2%
- total content of impurities ([3]; before storage (initial)): 2.10%
Structure (SMILES): CC(C)c1ccccc1[C@@H]1CCCN1C1CC2(CCN(c3ccc(C(=O)NS(=O)(=O)c4ccc(NCC5CCC(C)(O)CC5)c([N+](=O)[O-])c4)c(Oc4cnc5[nH]ccc5c4)c3)CC2)C1 (stereo partly drawn) [Compound 1 amorphous, 2-((1H-pyrrolo[2,3-b]pyridin-5-yl)oxy)-N-((4-((((1r,4r)-4-hydroxy-4-methylcyclohexyl)methyl)amino)-3-nitrophenyl)sulfonyl)-4-(2-((S)-2-(2-isopropylphenyl)pyrrolidin-1-yl)-7-azaspiro[3.5]nonan-7-yl)benzamide]

- hygroscopicity [1]: slight hygroscopicity
- water uptake [1]: 0.9%
- form change (XRPD overlay) ([4]; 25° C./60% RH, one week, unsealed): no form change
- form change (XRPD overlay) ([4]; 40° C./75% RH, one week, unsealed): no form change
- form change (XRPD overlay) ([4]; 80° C., sealed, 24 hrs): no form change
- crystalline status (XRPD overlay) ([5]; shaking in H2O, about 4 hours): no form change was observed
- crystalline status (XRPD overlay) ([5]; shaking in H2O, about 4 days): no form change was observed
- crystalline status (XRPD overlay) ([5]; shaking in acetone/H2O (1:9, v/v), about 4 hours): no form change was observed
- crystalline status (XRPD overlay) ([5]; shaking in acetone/H2O (1:9, v/v), about 4 days): no form change was observed
- crystalline status (XRPD overlay) ([5]; slurrying in H2O, about 4 hrs): no form change was observed
- crystalline status (XRPD overlay) ([5]; slurrying in H2O, about 4 days): a decrease of crystallinity was observed
- crystalline status (XRPD overlay) ([5]; slurrying in acetone/H2O (1:9, v/v), about 4 days): a decrease of crystallinity was observed
Structure (SMILES): CC(C)c1ccccc1[C@@H]1CCCN1C1CC2(CCN(c3ccc(C(=O)NS(=O)(=O)c4ccc(NCC5CCC(C)(O)CC5)c([N+](=O)[O-])c4)c(Oc4cnc5[nH]ccc5c4)c3)CC2)C1 (stereo partly drawn) [Form B, 2-((1H-pyrrolo[2,3-b]pyridin-5-yl)oxy)-N-((4-((((1r,4r)-4-hydroxy-4-methylcyclohexyl)methyl)amino)-3-nitrophenyl)sulfonyl)-4-(2-((S)-2-(2-isopropylphenyl)pyrrolidin-1-yl)-7-azaspiro[3.5]nonan-7-yl)benzamide]

- form change on storage [6]: convert back to Form N
Structure (SMILES): CC(C)c1ccccc1[C@@H]1CCCN1C1CC2(CCN(c3ccc(C(=O)NS(=O)(=O)c4ccc(NCC5CCC(C)(O)CC5)c([N+](=O)[O-])c4)c(Oc4cnc5[nH]ccc5c4)c3)CC2)C1 (stereo partly drawn) [Form T, 2-((1H-pyrrolo[2,3-b]pyridin-5-yl)oxy)-N-((4-((((1r,4r)-4-hydroxy-4-methylcyclohexyl)methyl)amino)-3-nitrophenyl)sulfonyl)-4-(2-((S)-2-(2-isopropylphenyl)pyrrolidin-1-yl)-7-azaspiro[3.5]nonan-7-yl)benzamide]
